Source: US9487561B2, “Biologically active complex and its preparation” (HAMLET PHARMA AB, priority 2010, dated 2016)

How the values were obtained:
Assay type in all cases: cell-based, human
[1] = system: lung carcinoma cells (A549); test: intracellular Ca^2+, Fluo-4, real time confocal microscopy; conditions: for effect of channel blocker on first, EGTA insensitive Ca^2+ peak in response to HAMLET: 30 minutes pretreatment
Experimental: To examine if HAMLET modulates ion channel activity in tumor cells, we first quantified changes in intracellular Ca^2+ and K^+. Lung carcinoma cells were first preloaded with the Fluo-4 Ca^2+ fluorophore Fluo-, exposed to HAMLET (35 μM) and examined by real time confocal microscopy for changes in fluorescence intensity (FIG. 1A). The Ca^2+ ionophore A23187, which acts as a Ca^2+ shuttle across cell membranes, was used as a positive control (Abbott et al., 1979, Antimicrobial Agents and Chemotherapy 16, 808-812).
To distinguish Ca^2+ mobilization from intracellular stores from the influx of extracellular Ca^2+, EGTA was then added to the cell medium. […] K^+ fluxes across tumor cell membranes were subsequently quantified under the same experimental conditions, using the fluorophore FLUXOR™, which fluoresces after thallium has entered cells through K^+ channels.
To further characterize ion channel activation by HAMLET, carcinoma cells were pretreated with defined channel blockers. Amiloride is a sodium channel inhibitor with effects on mechanosensitive channels, barium chloride (BaCl2) is a general K^+ channel inhibitor, gadolinium chloride (GdCl3) inhibits mechanosensitive channels, Ruthenium red is a general Ca^2+ inhibitor and tetrandrine inhibits large conductance, Ca^2+ activated K^+ channels. The carcinoma cells were preincubated with Fluo-4 as described above, pretreated with each of the channel inhibitors for 30 minutes, exposed to HAMLET (35 μM) and examined by real time confocal imaging. Furthermore, cells treated with EGTA were compared to cells with intact extracellular Ca^2+ levels, to distinguish the early peak from the subsequent influx of Ca^2+ (FIG. 1B, Table in FIG. 8).

[2] = system: IL-6, IL-8, TNFα in healthy, differentiated cells; test: innate immune response (qRT-PCR, cytokine quantification)
Experimental: RNA was prepared with the RNeasy Mini Kit (QIAGEN, Hilden, Germany) and treated with DNAse I (QIAGEN). cDNA was synthesized using the Superscript III first strand RT-PCR system (Invitrogen). PCR of spliced and un-spliced XBP1 was as described (Yoshida et al., 2001, Cell 107: 881-891). Real-time PCR was performed on a Rotorgene 2000 instrument (Corbett Life Science, Sydney, Australia) using TaqMan Gene Expression Assays (Applied BioSystems) CHOP/DDIT3 (Hs01090850), IL6 (Hs00985639), IL8 (Hs00174103) and TNFα (Hs00174128). GAPDH (Hs99999905_m1) was used for normalization.
Equal volumes of lysates were separated by SDS-PAGE on 4-12% Bis-Tris gels (Invitrogen) and blotted onto PVDF membranes. For other Western blots, 200,000 cells were allowed to adhere overnight in a 6-well plate. After HAMLET treatment the cells were washed with PBS and lysed in M-PER lysis buffer (Pierce) containing Complete protease inhibitor cocktail and PhosSTOP phosphatase inhibitor cocktail (both from Roche). The detached cells were collected by centrifugation. The lysates were cleared by centrifugation and protein concentrations were measured using the DC Protein Assay (Bio-Rad Laboratories, Hercules, Calif.). Equal amounts of protein were separated by SDS-PAGE on 4-12% Bis-Tris gels (Invitrogen) and blotted onto PVDF membranes (GE Healthcare). Membranes were saturated with BSA (GAPDH) or nonfat dry milk (phospho-p38, p38, phospho-ERK1/2, ERK1/2) and incubated with anti-p38, anti-phospho-p38, anti-ERK1/2, anti-phospho-(Thr202/Tyr204)-p44/42 (all 1:500-1000, Cell Signaling Technology), anti-ATF6 (1:1000, IMG-273, Imgenex), anti-phospho-eIF2α (Ser51), (1:500, Cell Signaling Technology) or anti-GAPDH (1:3000-5000, Novus Biologicals) antibodies followed by horseradish peroxidase-conjugated anti-rabbit (1:1000, DakoCytomation, Glostrup, Denmark) or anti-mouse (1:40000-50000, Novus Biologicals) antibodies for staining. Bound antibodies were detected with ECL Plus Western Blotting Reagent (GE Healthcare, Little Chalfont, UK) and GelDoc equipment (Bio-Rad Laboratories, Hercules, Calif.). If required, membranes were stripped with Restore Western Blot Stripping Buffer (Pierce, Rockford, Ill.), blocked and reprobed with new antibodies. MAP kinase phosphorylation was analyzed on a Human Phospho-MAPK array (Proteome Profiler Array, R&D Systems) as per the manufacturer's instruction. Band and spot intensities were quantified using ImageJ (Abramoff et al., July 2004, Biophotonics International). Cytokine quantification (IL6, IL8, TNFα) was performed on an […] 1000 immunoassay system (Siemens Diagnostics).
To examine the molecular basis of the difference in HAMLET susceptibility between carcinoma cells and healthy, differentiated cells, transcriptional profiles were compared.
To further examine if the innate immune response in healthy, differentiated cells requires functional ion channels, the expression of IL-6, IL-8 and TNFα mRNA was quantified in cells pretreated with amiloride and BaCl2, using qRT-PCR.

[3] = system: A549 lung carcinoma cells; test: global transcriptional response, whole genome arrays (Affymetrix)
Experimental: For the microarray analysis with ion channel inhibitors, 200,000 A549 cells/well were allowed to adhere overnight on a 6-well plate. After 1 hour of HAMLET treatment, the cells were lysed and RNA was extracted using the RNeasy Mini Kit (QIAGEN). The samples were sent to AROS Applied Biotechnology (Århus, Denmark) for analysis. Data was preprocessed using RMA implemented in the free software packages “affy” as provided by R and Bioconductor (<www.r-project.org>). Differentially expressed genes were identified using empirically Bayes adjusted t-statistics and characterized using the Functional Annotation Clustering Tool in the Database for Annotation, Visualization and Integrated Discovery (DAVID), (Dennis et al., 2003 Genome Biology 4(5): P3) and Ingenuity Pathway Analysis (Ingenuity Systems). All microarray data were registered into NCBI's Gene Expression Omnibus (GEO) database (<www.ncbi.nlm.nih.gov/projects/geo>) with accession numbers GSE23772.
To understand the mechanisms of carcinoma cell death and the contribution of ion channel activation, the global transcriptional response to HAMLET was examined, using whole genome arrays. A549 lung carcinoma cells were exposed to HAMLET (21 μM) for one hour and cells pretreated with amiloride were compared to cells in medium alone. […] An unbiased global overview of transcription was obtained by performing a hierarchical clustering of the top 3000 genes by variance and was visualized in a heatmap (FIG. 2D and FIG. 13). Genes with empirical Bayes adjusted p-values <0.05 and log 2 fold changes >1 were considered differentially expressed and were functionally characterized using Database for Annotation, Visualization and Integrated Discovery, (Dennis et al., supra, 2003) and Ingenuity Pathway Analysis.
In total 12 RNA samples were generated (triplicate of control, oleic Acid, HAMLET, and oleate-treated) and hybridized to Affymetrix Whole Genome microarrays U219. […] For statistical analysis normalized data were linear model fitted and Empirical Bayesian analysis, coupled with p-value adjustment, performed.

[4] = Example 5, Affymetrix U219, adjusted p-value <0.05 and log 2-foldchange of 1

For [Ba+2].[Cl-].[Cl-] [BaCl2, barium chloride], the “effect of channel blocker on first, EGTA insensitive Ca^2+ peak in response to HAMLET” value ([1]; HAMLET 35 μM) was “inhibited”, the “effect of inhibitor on HAMLET induced TNFα expression” value [2] was “caused a reduction” and the “effect of inhibitor on IL-6 and IL-8 response to HAMLET” value [2] was “did not inhibit”.

In the case of NC(N)=NC(=O)c1nc(Cl)c(N)nc1N [amiloride, 3,5-diamino-6-chloro-N-(diaminomethylene)pyrazine-2-carboxamide], the “effect of channel blocker on first, EGTA insensitive Ca^2+ peak in response to HAMLET” value ([1]; HAMLET 35 μM) is reported as “inhibited”, the “effect of inhibitor alone on transcription” value [3] is reported as “no significant effect on transcription” and the “number of differentially expressed genes in response to HAMLET in cells pretreated with inhibitor” value ([3]; HAMLET 21 μM, one hour) is reported as 52 genes. The “effect of inhibitor on HAMLET-induced IL-6 mRNA” value [2] was “abolished”.

For CCCCCCCC/C=C\CCCCCCCC(=O)[O-].[Na+] [oleate, sodium oleate], the “number of differentially expressed genes” value [3, 4] was 426 genes and the “global transcriptional response (heatmap, top 3000 genes by variance)” value ([3]; FIG. 7B) was “very similar transcriptional response”.

B1: HAMLET (protein, UniProt P00709 20-142, looked up)
Alpha-lactalbumin: KQFTKCELSQLLKDIDGYGGIALPELICTMFHTSGYDTQAIVENNESTEYGLFQISNKLWCKSSQVPQSRNICDISCDKFLDDDITDDIMCAKKILDIKGIDYWLAHKALCTEKLEQWLCEKL
modifications: oleic acid complex
B1 was tested, and the “cells involved in Ca^2+ response” value [1] was “about 50%”, the “increase in intracellular Ca^2+ levels relative to ionophore” value ([1]; HAMLET 35 μM) was 31 % of the ionophore and the “intracellular Ca^2+ response” value ([1]; HAMLET 35 μM) was “rapid, step-wise increase in intracellular Ca^2+”. The “second Ca^2+ peak” value ([1]; HAMLET 35 μM) was “about 100 seconds”, the “start of increase in intracellular Ca^2+” value ([1]; HAMLET 35 μM) was “about 30 seconds” and the “number of differentially expressed genes” value [3, 4] was 336 genes. For the same molecule, the “number of differentially expressed genes” value ([3]; HAMLET 21 μM, one hour, no inhibitor, adjusted p-values <0.05, log 2 fold changes >1) was 336 genes, the “secreted protein levels of IL-6, IL-8, and TNFα” value [2] was “clear increase in secreted protein levels” and the “increase in IL-6 mRNA” value ([2]; HAMLET 21 μM, 1 hour, qRT-PCR) was 30 fold.
